Assays:
[1] = target: Ribosomal protein S6 kinase beta-1 (Homo sapiens, UniProt P23443); assay: Inhibition of p70S6K assessed as decrease in NADH absorbance at 340 nm in the presence of
[2] = target: cAMP-dependent protein kinase catalytic subunit alpha (Homo sapiens, UniProt P17612); assay: Inhibition of PKAalpha assessed as decrease in NADH absorbance at 340 nm in the presence of
[3] = target: Glycogen synthase kinase-3 beta (Homo sapiens, UniProt P49841)
[4] = target: Rho-associated protein kinase 1 (Homo sapiens, UniProt Q13464)
Sequence of Rho-associated protein kinase 1 (Q13464 whole entry): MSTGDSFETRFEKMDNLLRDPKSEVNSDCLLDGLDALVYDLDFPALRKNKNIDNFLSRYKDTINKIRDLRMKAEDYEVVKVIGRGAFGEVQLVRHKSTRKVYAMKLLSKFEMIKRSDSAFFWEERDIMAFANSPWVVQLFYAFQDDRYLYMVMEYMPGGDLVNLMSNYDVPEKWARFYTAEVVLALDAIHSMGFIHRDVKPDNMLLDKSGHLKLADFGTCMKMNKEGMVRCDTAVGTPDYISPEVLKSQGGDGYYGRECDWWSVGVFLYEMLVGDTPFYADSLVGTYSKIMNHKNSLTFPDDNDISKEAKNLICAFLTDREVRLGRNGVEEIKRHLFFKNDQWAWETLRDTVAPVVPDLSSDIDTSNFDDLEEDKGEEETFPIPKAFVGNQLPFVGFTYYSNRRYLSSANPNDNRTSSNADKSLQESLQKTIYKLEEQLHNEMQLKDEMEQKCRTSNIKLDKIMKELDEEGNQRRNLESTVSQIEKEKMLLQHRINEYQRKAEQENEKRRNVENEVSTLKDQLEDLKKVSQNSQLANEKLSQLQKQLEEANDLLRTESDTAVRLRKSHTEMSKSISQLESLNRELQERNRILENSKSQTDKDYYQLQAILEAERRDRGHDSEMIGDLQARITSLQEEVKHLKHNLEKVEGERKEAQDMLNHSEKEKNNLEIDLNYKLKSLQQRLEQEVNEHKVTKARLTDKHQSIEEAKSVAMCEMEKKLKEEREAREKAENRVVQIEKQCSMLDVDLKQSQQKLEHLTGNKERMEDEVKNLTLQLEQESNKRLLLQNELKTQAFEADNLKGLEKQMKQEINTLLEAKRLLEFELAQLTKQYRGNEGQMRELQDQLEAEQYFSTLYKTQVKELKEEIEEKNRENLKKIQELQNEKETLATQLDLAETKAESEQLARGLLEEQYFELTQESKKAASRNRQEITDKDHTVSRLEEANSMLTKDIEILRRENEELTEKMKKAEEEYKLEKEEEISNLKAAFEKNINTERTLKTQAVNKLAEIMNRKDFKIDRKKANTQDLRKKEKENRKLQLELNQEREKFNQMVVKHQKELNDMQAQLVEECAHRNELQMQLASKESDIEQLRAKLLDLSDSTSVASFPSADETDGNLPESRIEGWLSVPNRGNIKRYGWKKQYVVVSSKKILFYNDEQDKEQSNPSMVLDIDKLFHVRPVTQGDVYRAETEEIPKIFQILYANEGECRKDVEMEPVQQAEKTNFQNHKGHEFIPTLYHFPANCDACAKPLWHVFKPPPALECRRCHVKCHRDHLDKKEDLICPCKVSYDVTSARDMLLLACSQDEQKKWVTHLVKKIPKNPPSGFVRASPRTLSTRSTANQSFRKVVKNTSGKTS
Description: Inhibition of ROCK1 assessed as decrease in NADH absorbance at 340 nm in the presence of

Sequence of Glycogen synthase kinase-3 beta (P49841 whole entry): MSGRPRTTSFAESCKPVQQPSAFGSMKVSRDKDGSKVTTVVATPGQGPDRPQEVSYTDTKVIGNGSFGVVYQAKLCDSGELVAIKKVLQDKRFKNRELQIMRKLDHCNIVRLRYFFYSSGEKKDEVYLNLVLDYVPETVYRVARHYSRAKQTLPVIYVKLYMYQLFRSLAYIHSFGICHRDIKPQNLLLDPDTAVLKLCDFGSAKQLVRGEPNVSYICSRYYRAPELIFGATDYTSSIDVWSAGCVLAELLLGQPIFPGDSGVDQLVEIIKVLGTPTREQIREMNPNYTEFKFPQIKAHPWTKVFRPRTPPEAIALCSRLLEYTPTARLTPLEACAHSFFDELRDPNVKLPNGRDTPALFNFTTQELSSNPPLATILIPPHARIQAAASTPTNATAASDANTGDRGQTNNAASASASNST
Sequence of Ribosomal protein S6 kinase beta-1 (P23443 whole entry): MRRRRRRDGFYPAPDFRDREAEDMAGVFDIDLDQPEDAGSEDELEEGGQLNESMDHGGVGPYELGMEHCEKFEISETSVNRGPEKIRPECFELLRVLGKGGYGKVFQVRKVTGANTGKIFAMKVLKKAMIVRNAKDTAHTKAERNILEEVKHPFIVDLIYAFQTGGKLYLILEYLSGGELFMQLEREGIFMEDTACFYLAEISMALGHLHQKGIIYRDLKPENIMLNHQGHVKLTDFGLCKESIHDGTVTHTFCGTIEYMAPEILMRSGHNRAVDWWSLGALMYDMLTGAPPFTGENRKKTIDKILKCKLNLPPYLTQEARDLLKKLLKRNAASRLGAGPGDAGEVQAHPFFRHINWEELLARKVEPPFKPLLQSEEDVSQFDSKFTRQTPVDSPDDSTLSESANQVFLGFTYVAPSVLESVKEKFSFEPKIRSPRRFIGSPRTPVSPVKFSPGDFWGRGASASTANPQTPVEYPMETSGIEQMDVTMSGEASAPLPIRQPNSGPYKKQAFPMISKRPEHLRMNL

| SMILES | Ki [1] | Ki [2] | Ki [3] | Ki [4] |
| --- | --- | --- | --- | --- |
| CC(C)Cn1cc(-c2ccccc2)nc1-c1nonc1N | 0.089 µM | 1.2 µM | > 3.3 µM | > 3.3 µM |
| COc1cccc(-n2c(-c3nonc3N)nc3ccccc32)c1 | 1.9 µM | – | > 5 µM | > 5 µM |
| Nc1nonc1-c1nc2ccccc2n1C1CCCCC1 | 0.012 µM | 0.6 µM | 0.24 µM | 0.72 µM |
| Nc1nonc1-c1nc2ccccc2n1C1CC1 | 0.095 µM | > 3.3 µM | > 3.3 µM | 0.45 µM |
| COc1ccccc1-n1c(-c2nonc2N)nc2ccccc21 | 0.031 µM | > 5 µM | > 5 µM | 1.3 µM |
| CC(C)Cn1cc(C#N)nc1-c1nonc1N | 1.6 µM | > 3.3 µM | > 3.3 µM | > 3.3 µM |
| Nc1nonc1-c1nc2ccccc2n1-c1ccccc1 | 0.11 µM | 1.3 µM | 0.62 µM | 0.59 µM |
| Nc1nonc1-c1nc2ccccc2n1CC1CC1 | 0.012 µM | 0.38 µM | 0.29 µM | 0.36 µM |
| Nc1nonc1-c1nc2ccccc2n1C1CCCC1 | 0.013 µM | 0.72 µM | 0.21 µM | 0.34 µM |
| Cc1cn(CC(C)C)c(-c2nonc2N)n1 | 0.34 µM | > 3.3 µM | 0.69 µM | > 3.3 µM |
| Nc1ccc2c(c1)nc(-c1nonc1N)n2C1CCC1 | < 0.001 µM | 0.034 µM | 2.1 µM | 0.085 µM |

Now from value to molecule:

| Ki [1] | Ki [2] | Ki [3] | Ki [4] | SMILES |
| --- | --- | --- | --- | --- |
| 0.019 µM | 2.6 µM | 3.2 µM | > 3.3 µM | Cc1ccc2c(c1)nc(-c1nonc1N)n2C1CCC1 |
| 0.016 µM | 1.5 µM | > 3.3 µM | > 3.3 µM | Nc1nonc1-c1nc2cc(CO)ccc2n1C1CCC1 |
| < 0.001 µM | 2.8 µM | 1.1 µM | 2.2 µM | Nc1nonc1-c1nc2cc(O)ccc2n1C1CCC1 |
| 0.039 µM | 2.5 µM | 0.46 µM | 0.94 µM | COc1ccc2c(c1)nc(-c1nonc1N)n2C1CCC1 |
| 0.05 µM | 0.96 µM | 0.7 µM | 0.33 µM | CCn1c(-c2nonc2N)nc2ccccc21 [GW549034X] |
| 0.8 µM | > 5 µM | 1 µM | > 2.5 µM | N#Cc1ccc(-n2c(-c3nonc3N)nc3ccccc32)cc1 |
| 0.54 µM | > 4 µM | 7.3 µM | > 3.3 µM | Cn1c(-c2nonc2N)nc2ccccc21 |
| 0.04 µM | > 3.3 µM | 1.5 µM | 1.9 µM | CC(C)n1c(-c2nonc2N)nc2ccccc21 |
| 0.069 µM | 1.4 µM | – | – | Nc1nonc1-c1nc2ccccc2n1CC1CCC1 |
| 0.022 µM | 1.1 µM | – | 0.93 µM | CC(C)Cn1c(-c2nonc2N)nc2ccccc21 |
| 0.8 µM | > 5 µM | > 2.5 µM | > 2.5 µM | N#Cc1cccc(-n2c(-c3nonc3N)nc3ccccc32)c1 |
| 0.026 µM | > 5 µM | > 3.3 µM | 0.81 µM | N#Cc1ccccc1-n1c(-c2nonc2N)nc2ccccc21 |
| 0.41 µM | > 3.3 µM | > 3.3 µM | > 3.3 µM | COC(=O)c1ccc2c(c1)nc(-c1nonc1N)n2C1CCC1 |
| 0.55 µM | > 4 µM | > 5 µM | 2.1 µM | COc1ccc(-n2c(-c3nonc3N)nc3ccccc32)cc1 |
| 2.2 µM | > 3.3 µM | > 3.3 µM | > 3.3 µM | CC(=O)Nc1ccc2c(c1)nc(-c1nonc1N)n2C1CCC1 |
| 0.004 µM | 0.54 µM | 0.38 µM | 0.18 µM | Nc1nonc1-c1nc2ccccc2n1C1CCC1 |
